By solubility is commonly meant how much of the substance goes into solution per volume.

The source of these data is US10913709B2, “STAT3 inhibitor formulation” (priority 2017, dated 2021).

Molecules are shown by their SMILES.

Series [1] can be described thus: Aqueous solubility in the presence of various bases (Example 1). It is filed as physicochemical. The source says:
(§1) The resulting mixtures were examined for both solubility and stability with the results being analyzed high-performance liquid chromatography (HPLC) with UV and mass spectroscopy detection.

The nature of series [2]: Stability in water in the presence of various bases, HPLC with UV and MS detection (Example 1). It is filed as physicochemical.
Text: as §1

The conditions of series [3]: cited from earlier work.
Series [4] is described as follows: Observation for toxicity and mortality in the PK study. It counts as in vivo. How it is done:
Mice were weighed within 72 hours of receipt and again on Study Day −1. Mice were observed once daily prior to day 0, and at least twice daily beginning on day 0 for 24 hours post-dose for morbidity and moribundity.

The nature of series [5]: Plasma stability in mouse plasma. It is filed as in vitro ADME. As for the experimental part: An hour-by-hour analysis was then conducted, showing a marked decrease at ambient conditions (see Table 4). […] It should be noted that the time measurement for ambient is listed in hours (Table 4) compared with the time for the −20° C., which was measured in days (Table 5).
A short description of series [6]: Stability in acetonitrile extract (post sample preparation). The settings on record: 6 days. It is filed as physicochemical. How it is done:
In particular, once the centrifugation was performed on the blood samples to provide the plasma samples for analysis, extraction into acetonitrile was done as quickly as possible (e.g., <1 hour).

Series [7] can be described thus: Body weight and toxicity during the chemoprevention study. It is filed as in vivo, female MMTV/Neu mice. Particulars: gavage 5 times/week, 500, 250, and 100 mg/kg BW/day, throughout the experiment.
The test system of series [8] is DMBA-induced mammary cancer. The experiment in a line: Chemoprevention study of DMBA-induced mammary cancer.
Text: The negative control group received vehicle (purified water) only. In order to accelerate tumor formation, the mice were also given 7,12-dimethylbenz[a]anthracene (DMBA) by gavage 1 time/week for 4 weeks beginning at 57 days of age. The study was terminated 4 months after DMBA exposure. During the treatment period, the body weights of the mice and the appearance of palpable mammary tumors were monitored on a weekly and twice-weekly basis, respectively.
The test system of the next series is Ki67 expression. The experiment in a line: Ki67 expression in normal mammary gland, immunohistochemical analysis. The settings on record: two weeks of treatment.

Method for Ki67 expression: Ki67 expression was assessed by immunohistochemical analysis of the normal ductal epithelium. Stained sections were scanned and quantitated using automated image analysis software.

In the case of `Cc1ccc(S(=O)(=O)OCC(=O)Nc2ccc(C(=O)O)c(O)c2)cc1` [NSC-74859], the solubility in series [1] (water with 1.1 molar equivalents of TRIZMA base, aqueous buffer, thermodynamic from solid, with 1.1 molar equivalents TRIZMA (2-amino-2-(hydroxymethyl)-1,3-propanediol), pH 7 water) is about 60 mg/mL. Also, the aqueous solubility result in series [1] (with 1.1 molar equivalents of base in water, all bases examined (LiOH, NaOH, K2CO3, NaHCO3, TRIZMA)) is listed as “good aqueous solubility”. Also, the “degradation (loss of the tosylate group)” value in [2] (in stronger bases, such as sodium hydroxide, in water) is on record as “Degradation was much more pronounced”. The “time the product remained stable” value in [2] (with TRIZMA, in water at room temperature, initial analysis) is about 8 h. The “solubility in water and ethanol” value in [3] is “poorly soluble in water and ethanol”.
In the case of `Cc1ccc(S(=O)(=O)OCC(=O)Nc2ccc(C(=O)O)c(O)c2)cc1` [Compound 1], the solubility in water result in [1] (water) is reported as “highly soluble in water”. The “signs of toxicity post-dose” value in series [4] (groups A-H: IV 50 mg/kg, PO 500, 250, 125 mg/kg, observed 24 hours post-dose) is reported as “None of the mice in groups A-H demonstrated signs of toxicity”. Moreover, the mortality result in series [4] (oral or IV administration, any of the doses administered) was “no mortality”. The recovery at 0 h in series [5] (ambient conditions, 0 hours) came to 88.6%. The molecule also yielded a recovery at 1 h in [5] (ambient conditions, 1 hour) of 61.2%. The same molecule came in with a recovery at 2 h in [5] (ambient conditions, 2 hours) of 52.6%. Also, the recovery at 3 h in series [5] (ambient conditions, 3 hours) came out at 28.7%. This molecule also displayed a recovery at 5 h in series [5] (ambient conditions, 5 hours) of 21.3%. Besides, the recovery at 6 h in series [5] (ambient conditions, 6 hours) was found to be 15.8%. The “plasma stability, daily assessment” value in [5] (samples assessed daily, no free acid observed after 1 day) was “stability was short”. In addition, the recovery at 0 days in series [5] (−20° C., 0 days) amounted to 94.5%. In addition, the recovery at 1 days in series [5] (−20° C., 1 day) turned out to be 76.6%. In addition, the recovery at 2 days in series [5] (−20° C., 2 days) amounted to 65.7%. Moreover, the recovery at 3 days in series [5] (−20° C., 3 days) turned out to be 58%. Also, the recovery at 6 days in [5] (−20° C., 6 days) was determined as 46.6%. Further, the “stability in an acetonitrile extract” value in series [6] is given as “little/no degradation”. In addition, in series [7], the “weight loss or toxicity” value was “No weight loss or toxicity was observed”. Besides, in series [8] (500 mg/kg BW/day by gavage), the “effect in preventing breast cancer” value was “greatest effect”. Further, the “onset of DMBA-induced breast cancer” value in series [8] (all doses tested (500, 250, and 100 mg/kg BW/day by gavage)) was “able to delay the onset”. Besides, the “incidence, multiplicity, and weights of mammary tumors compared to the vehicle-only control” value in series [8] (gavage 5 times/week, 500, 250, and 100 mg/kg BW/day, DMBA-accelerated, 4 months) is “dose-dependent decrease”. Also, the entries for the “inhibition of Ki67” value in the series on Ki67 expression (250 mg/kg BW/day) and in the series with Ki67 expression (500 mg/kg BW/day) were 85% and 83%, respectively.
